The record followed here is US20240132464A1, “HETEROCYCLIC COMPOUNDS AS E3 LIGASE INHIBITORS” (Accutar Biotechnology Inc., priority 2022, published 2024).

This assay addresses T1, GID4 (Uniprot ID: Q81VV7, residues 124-289) (Homo sapiens, UniProt Q8IVV7).
T1 construct: GID4 (Uniprot ID: Q81VV7, residues 124-289)
T1 sequence (Q8IVV7 124-289): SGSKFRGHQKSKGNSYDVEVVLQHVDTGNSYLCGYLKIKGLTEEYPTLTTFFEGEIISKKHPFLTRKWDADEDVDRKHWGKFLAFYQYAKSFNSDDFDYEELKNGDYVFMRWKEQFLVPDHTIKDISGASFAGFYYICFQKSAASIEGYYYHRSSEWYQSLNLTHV
As to the kind of experiment: GID4 competitive binding assay (AlphaScreen, GID4/degron peptide PGLW). The note with it: 24 nM GID4, 48 nM biotinylated degron peptide PGLW, 4° C., read-out: IC50 (Inhibition of GID4/Degron binding by test compounds). In outline:
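His-tagged human GID4 (residues 124-289, 24 nM) pre-incubated 2 h at 4 °C with 48 nM biotinylated PGLW peptide and compound in HEPES pH 7.5 buffer, 2% DMSO (final). AlphaScreen streptavidin donor/Ni-NTA acceptor beads added for 1 h; IC50 from nonlinear fit of % inhibition versus DMSO.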
Background: In Alpha technology, singlet oxygen from a donor bead excites a nearby acceptor bead.
With `CC(C)c1cc(N2CCN[C@H](c3cnc4ccccn34)C2)c2nc[nH]c2n1` (stereo in doubt) [Compound 369, (S/R)-7-(3-(imidazo[1,2-a]pyridin-3-yl)piperazin-1-yl)-5-isopropyl-3H-imidazo[4,5-b]pyridine], the IC50 is less than 0.5 µM.
Then `Nc1nccc2ccc(-c3ccc4[nH][nH]c(=O)c4c3)cc12` [Compound 1, 5-(1-aminoisoquinolin-7-yl)-1,2-dihydro-3H-indazol-3-one], with 0.5 to 5 µM.
Consider `CC(C)c1cc(N2Cc3ccnn3C(c3ccccc3Br)C2)nc(N)n1` (stereo not drawn) [Compound 2, 4-(7-(2-bromophenyl)-6,7-dihydropyrazolo[1,5-a]pyrazin-5(4H)-yl)-6-isopropylpyrimidin-2-amine], for which the IC50 lay within 0.5 to 5 µM.
On to `CN(C)CCNCc1n[nH]c2ccc(-c3ccc4ccnc(N)c4c3)cc12` [Compound 3, N1-((5-(1-aminoisoquinolin-7-yl)-1H-indazol-3-yl)methyl)-N2,N2-dimethylethane-1,2-diamine], for which the IC50 was less than 0.5 µM.
On to `CN(C)CCNC(=O)c1c[nH]c2ncc(-c3ccc4ccnc(N)c4c3)cc12` [Compound 8, 5-(1-aminoisoquinolin-7-yl)-N-(2-(dimethylamino)ethyl)-1H-pyrrolo[2,3-b]pyridine-3-carboxamide], for which the IC50 was greater than 5 µM.
On to `CN(C)CCNC(=O)c1ccc(Br)c(C2CN(c3cc(N)nc(N)n3)CCN2)c1` (stereo not drawn) [Compound 9, 4-bromo-3-(4-(2,6-diaminopyrimidin-4-yl)piperazin-2-yl)-N-(2-(dimethylamino)ethyl)benzamide], for which the IC50 is less than 0.5 µM.
Then `CN1CCC(C)(NC(=O)c2n[nH]c3ccc(-c4ccc5ccnc(N)c5c4)cc23)CC1` [Compound 10, 5-(1-aminoisoquinolin-7-yl)-N-(1,4-dimethylpiperidin-4-yl)-1H-indazole-3-carboxamide], with less than 0.5 µM; and `CC(C)c1cc(N2CCCC(c3cnc4ccccn34)C2)c2nc[nH]c2n1` (stereo not drawn) [Compound 19, 7-(3-(imidazo[1,2-a]pyridin-3-yl)piperidin-1-yl)-5-isopropyl-3H-imidazo[4,5-b]pyridine], with less than 0.5 µM; and `CC(C)c1cc(N2CCNC(c3cnn4ccccc34)C2)nc(N)n1` (stereo not drawn) [Compound 22, 4-isopropyl-6-(3-(pyrazolo[1,5-a]pyridin-3-yl)piperazin-1-yl)pyrimidin-2-amine], with less than 0.5 µM.
Then `Nc1cc(N2CCOC(c3ccccc3C(F)(F)F)C2)nc(N)n1` (stereo not drawn) [Compound 29, 6-(2-(2-(trifluoromethyl)phenyl)morpholino)pyrimidine-2,4-diamine], with less than 0.5 µM; and `CC(C)c1cc(N2CCNC(c3cnc4ccccn34)C2)nc(N)n1` (stereo not drawn) [Compound 32, 4-(3-(imidazo[1,2-a]pyridin-3-yl)piperazin-1-yl)-6-isopropylpyrimidin-2-amine], with less than 0.5 µM; and `Nc1cc(N2CCNC(c3cc(N4CCC(CO)CC4)ccc3Br)C2)nc(N)n1` (stereo not drawn) [Compound 33, (1-(4-bromo-3-(4-(2,6-diaminopyrimidin-4-yl)piperazin-2-yl)phenyl)piperidin-4-yl)methanol], with less than 0.5 µM.
Consider `COC(=O)c1ccc(Br)c(C2CN(c3cc(N)nc(N)n3)CCN2)c1` (stereo not drawn) [Compound 38, methyl 4-bromo-3-(4-(2,6-diaminopyrimidin-4-yl)piperazin-2-yl)benzoate], for which the IC50 is less than 0.5 µM.
Then `CC(C)c1cc(N2CCNC(c3cc(N4CCNCC4)ccc3Br)C2)nc(N)n1` (stereo not drawn) [Compound 41, 4-(3-(2-bromo-5-(piperazin-1-yl)phenyl)piperazin-1-yl)-6-isopropylpyrimidin-2-amine], with less than 0.5 µM; and `CC(=O)N1CCN(c2cc(N)nc(NC3CC3)n2)CC1c1ccccc1Br` (stereo not drawn) [Compound 52, 1-(4-(6-amino-2-(cyclopropylamino)pyrimidin-4-yl)-2-(2-bromophenyl)piperazin-1-yl)ethan-1-one], with 0.5 to 5 µM; and `Nc1nc(NC2CC2)nc(N2CCN(CCO)C(c3ccccc3Br)C2)n1` (stereo not drawn) [Compound 53, 2-(4-(4-amino-6-(cyclopropylamino)-1,3,5-triazin-2-yl)-2-(2-bromophenyl)piperazin-1-yl)ethan-1-ol], with greater than 5 µM.
As for `Nc1cc(N2CCNC(c3ccccc3C(F)(F)F)C2)nc(N)n1` (stereo not drawn) [Compound 54, 6-(3-(2-(trifluoromethyl)phenyl)piperazin-1-yl)pyrimidine-2,4-diamine], the IC50 was less than 0.5 µM.
As for `Nc1nc(N2CCNC(c3cnc4ccccn34)C2)c2[nH]ccc2n1` (stereo not drawn) [Compound 55, 4-(3-(imidazo[1,2-a]pyridin-3-yl)piperazin-1-yl)-5H-pyrrolo[3,2-d]pyrimidin-2-amine], the IC50 was in the range of 0.5 to 5 µM.
As to `c1ccn2c(C3CCCN(c4ncnc5c4CCCN5)C3)cnc2c1` (stereo not drawn) [Compound 58, 4-(3-(imidazo[1,2-a]pyridin-3-yl)piperidin-1-yl)-5,6,7,8-tetrahydropyrido[2,3-d]pyrimidine], the IC50 was 0.5 to 5 µM.
As for `Nc1nc(NC2CC2)nc(N2CCOC(c3ccccc3Br)C2)n1` (stereo not drawn) [Compound 61, 6-(2-(2-bromophenyl)morpholino)-N2-cyclopropyl-1,3,5-triazine-2,4-diamine], the IC50 was in the range of 0.5 to 5 µM.
Turning to `c1ccn2c(C3CCCN(c4ccnc5[nH]cnc45)C3)cnc2c1` (stereo not drawn) [Compound 62, 7-(3-(imidazo[1,2-a]pyridin-3-yl)piperidin-1-yl)-3H-imidazo[4,5-b]pyridine], the IC50 was less than 0.5 µM.
The same measure for `Nc1nc(NC2CC2)c(Cl)c(N2CCNC(c3ccccc3Br)C2)n1` (stereo not drawn) [Compound 63, 6-(3-(2-bromophenyl)piperazin-1-yl)-5-chloro-N4-cyclopropylpyrimidine-2,4-diamine]: 0.5 to 5 µM; for `Nc1nc(N)c(Cl)c(N2CCNC(c3ccccc3Br)C2)n1` (stereo not drawn) [Compound 68, 6-(3-(2-bromophenyl)piperazin-1-yl)-5-chloropyrimidine-2,4-diamine]: greater than 5 µM; for `CN1CCN(c2cc(N)nc(NC3CC3)n2)CC1c1ccccc1Br` (stereo not drawn) [Compound 71, 6-(3-(2-bromophenyl)-4-methylpiperazin-1-yl)-N2-cyclopropylpyrimidine-2,4-diamine]: less than 0.5 µM.
The same measure for `CC(C)c1nc(N)cc(N2CCN(C)C(c3ccccc3Br)C2)n1` (stereo not drawn) [Compound 74, 6-(3-(2-bromophenyl)-4-methylpiperazin-1-yl)-2-isopropylpyrimidin-4-amine]: 0.5 to 5 µM; for `Brc1ccccc1C1CN(c2cc(NC3CC3)ncn2)CCN1` (stereo not drawn) [Compound 79, 6-(3-(2-bromophenyl)piperazin-1-yl)-N-cyclopropylpyrimidin-4-amine]: greater than 5 µM; for `CNc1cc(N2CCCC(c3csc4ccccc34)C2)nc(N)n1` (stereo not drawn) [Compound 82, 6-(3-(benzo[b]thiophen-3-yl)piperidin-1-yl)-N4-methylpyrimidine-2,4-diamine]: 0.5 to 5 µM.
Regarding `CNc1nc(N)cc(N2CCCC(c3ccccc3Br)C2)n1` (stereo not drawn) [Compound 85, 6-(3-(2-bromophenyl)piperidin-1-yl)-N^2-methylpyrimidine-2,4-diamine], the IC50 is 0.5 to 5 µM.
Then `Nc1nc2c(c(N3CCCC(c4cnc5ccccn45)C3)n1)CCCN2` (stereo not drawn) [Compound 88, 4-(3-(imidazo[1,2-a]pyridin-3-yl)piperidin-1-yl)-5,6,7,8-tetrahydropyrido[2,3-d]pyrimidin-2-amine], with greater than 5 µM; and `Nc1cc(N2CCCC(n3ncc4ccccc43)C2)nc(N)n1` (stereo not drawn) [Compound 89, 6-(3-(1H-indazol-1-yl)piperidin-1-yl)pyrimidine-2,4-diamine], with greater than 5 µM.
The same measure for `c1ccn2c(C3CCCN(c4ncnc5[nH]ccc45)C3)cnc2c1` (stereo not drawn) [Compound 90, 4-(3-(imidazo[1,2-a]pyridin-3-yl)piperidin-1-yl)-7H-pyrrolo[2,3-d]pyrimidine]: greater than 5 µM; for `c1ccn2c(C3CCCN(c4ccnc5[nH]ccc45)C3)cnc2c1` (stereo not drawn) [Compound 91, 3-(1-(1H-pyrrolo[2,3-b]pyridin-4-yl)piperidin-3-yl)imidazo[1,2-a]pyridine]: less than 0.5 µM; for `CNc1cc(N2CCNC(c3cnc4ccccn34)C2)nc(N)n1` (stereo not drawn) [Compound 92, 6-(3-(imidazo[1,2-a]pyridin-3-yl)piperazin-1-yl)-N4-methylpyrimidine-2,4-diamine]: 0.5 to 5 µM.
Then `CNc1cc(N2CCCC(n3nnc4ccccc43)C2)nc(N)n1` (stereo not drawn) [Compound 93, 6-(3-(1H-benzo[d][1,2,3]triazol-1-yl)piperidin-1-yl)-N4-methylpyrimidine-2,4-diamine], with greater than 5 µM; and `CNc1cc(N2CCCC(c3ncc4ccccn34)C2)nc(N)n1` (stereo not drawn) [Compound 94, 6-(3-(imidazo[1,5-a]pyridin-3-yl)piperidin-1-yl)-N4-methylpyrimidine-2,4-diamine], with greater than 5 µM; and `CN1CCN(c2cc(NC3CC3)nc(N)n2)CC1c1ccccc1Br` (stereo not drawn) [Compound 101, 6-(3-(2-bromophenyl)-4-methylpiperazin-1-yl)-N4-cyclopropylpyrimidine-2,4-diamine], with less than 0.5 µM.
As to `CNc1cc(N2CCNC(c3csc4ccccc34)C2)nc(N)n1` (stereo not drawn) [Compound 102, 6-(3-(benzo[b]thiophen-3-yl)piperazin-1-yl)-N4-methylpyrimidine-2,4-diamine], the IC50 is 0.5 to 5 µM.
Then `Nc1nc(NC2CC2)cc(N2CCCC(c3cnc4ccccn34)C2)n1` (stereo not drawn) [Compound 107, N4-cyclopropyl-6-(3-(imidazo[1,2-a]pyridin-3-yl)piperidin-1-yl)pyrimidine-2,4-diamine], with 0.5 to 5 µM; and `CNc1cc(N2CCN(C)C(c3ccccc3)C2)nc(N)n1` (stereo not drawn) [Compound 110, N4-methyl-6-(4-methyl-3-phenylpiperazin-1-yl)pyrimidine-2,4-diamine], with 0.5 to 5 µM.
